Laboratory results: patent US20200253877A1, “GEMCABENE, PHARMACEUTICALLY ACCEPTABLE SALTS THEREOF, COMPOSITIONS THEREOF AND METHODS OF USE THEREFOR” (NEUROBO PHARMACEUTICALS, INC., priority 2018, published 2020)

Legend:
[1] = tested on: patients with hypercholesterolemia on stable statin therapy; assay: 12-week placebo-controlled study of 600 mg QD in hypercholesterolemia patients on moderate and high-intensity statins: atherogenic and inflammatory biomarkers; format: in vivo, human
Protocol: High-risk patients including some, but not all those with heterozygous familial hypercholesterolemia (HeFH) or atherosclerotic cardiovascular disease (ASCVD) on appropriate diet and stable statin therapy for at least 12 weeks and LDL-C ≥100 mg/dL (2.59 mmol/L) and triglycerides <500 mg/dL (5.65 mmol/L) were randomized into a 12-week, placebo-controlled, parallel-group, double-blind study to assess the efficacy of gemcabene calcium salt hydrate Crystal Form 1 (PSD90=52 μm) 600 mg (300-mg film-coated Tablet D×2) QD on LDL-C and other lipoproteins and hsCRP (high-sensitivity C-reactive protein). Safety and tolerability were also evaluated. The patients were stratified by high- or moderate-intensity statin therapy, with or without ezetimibe, with a target of 52 patients (26 patients on 600 mg gemcabene calcium salt hydrate Crystal Form 1 as administered by 2×film-coated Tablet D and 26 patients on placebo (“placebo”)) in each stratum. […] Mean baseline LDL-C for all patients was approximately 134 mg/dL (3.48 mmol/L) with most patients in the high-intensity statin stratum on atorvastatin and most patients in the moderate-intensity stratum on either simvastatin or atorvastatin.
The aim of this study was to characterize gemcabene calcium salt hydrate Crystal Form 1's safety and tolerability and to determine gemcabene calcium salt hydrate Crystal Form 1's additive impact to statins on serum biomarker including atherogenic biomarkers (LDL-C, non-HDL-C, ApoB, ApoE, and triglyceride (TG)) and inflammatory biomarkers (hsCRP, serum amyloid A (SAA)).
Fifty patients (24 patients on 600 mg (Tablet D×2); 26 placebo) on baseline high-intensity (HI) statins received atorvastatin 40 mg or 80 mg QD; or rosuvastatin 20 mg or 40 mg QD. Fifty-five patients (29 patients on 600 mg GEM; 26 placebo) on baseline moderate-intensity (MI) statins received atorvastatin 10 mg or 20 mg QD; rosuvastatin 5 mg or 10 mg QD; or simvastatin 20 or 40 mg QD. Baseline LDL-C was 127 mg/dL and 134 mg/dL in the MI statin and HI statin stratum, respectively.
Within the study population, an analysis was performed in a subpopulation of patients having mixed dyslipidemia (LDL-C ≥100 mg/dL and triglycerides ≥200 and <500 mg/dL). Eighteen patients (10 (film-coated Tablet D×2) patients and 8 placebo patients) having a baseline mean LDL-C level of 142 mg/dL, baseline mean triglyceride level of 247 mg/dL and BMI of 34 kg/m^2 were analyzed (FIG. 48). Although not measured in the subpopulation of this Example, some cardiometabolic patients could have elevated sulphatase-2 (Sulf-2) levels, which are believed to cause reduced Syndecan-1 (also known as “remnant receptor”)-mediated clearance of atherogenic remnant lipoproteins. Without being bound by theory, the data shown in FIG. 48 support the inventors' belief that administration of film-coated Tablet D, which comprises a compound of the invention, rescues remnant receptor activity.

[2] = tested on: STAM™ mice, a murine model of NASH-HCC; assay: Murine STAM model of NASH-HCC: liver histology (H&E, NAFLD Activity Score, Sirius red fibrosis area); format: in vivo, mouse; set-up: key to NAS (mean ± SD) / NAFLD Activity Score: NAS = unweighted sum of steatosis, lobular inflammation, ballooning scores; settings: for fibrosis area (Sirius red-positive area): all gemcabene Form 1 groups (30, 100, 300 mg/kg); for Lobular Inflammation score 0: number of mice: score 0 = No foci; for Hepatocyte Ballooning score 0: number of mice: score 0 = None; for Steatosis score 1: number of mice: score 1 = 5-33%; for Hepatocyte Ballooning score 1: number of mice: score 1 = Few balloon cells; for Lobular Inflammation score 2: number of mice: score 2 = 2-4 foci/200x; for Hepatocyte Ballooning score 2: number of mice: score 2 = Many cells/prominent ballooning; for Steatosis score 0: number of mice: score 0 = <5%
Text: The present invention further provides methods for reducing a fibrosis score or a nonalcoholic fatty liver disease activity score in a subject, comprising administering to a subject in need thereof an effective amount of a tablet of the invention, gemcabene calcium salt hydrate Crystal Form 4, gemcabene calcium salt hydrate Crystal Form 5 or gemcabene calcium salt hydrate Crystal Form 6. The nonalcoholic fatty liver disease activity score (NAS or NAFLD score) is a composite score that measures changes in NAFLD during therapeutic trials. NAS is a composite score comprised of three components that includes scores for steatosis, lobular inflammation and hepatocyte ballooning (Table 36). NAS is the unweighted sum of the scores for steatosis, lobular inflammation and hepatocyte ballooning. Steatosis grade is quantified as the percentage of hepatocytes that contain fat droplets. The fibrosis stage of the liver is evaluated separately from NAS by histological evaluation of the intensity of Sirius red staining of collagen in the pericentral region of liver lobules.
A study was performed to evaluate the efficacy of gemcabene calcium salt hydrate Crystal Form 1 having a PSD90 of 52 μm as measured by laser light diffraction, in treating non-alcoholic steatosis hepatitis (NASH) in the murine STAM™ model of NASH-HCC.
Briefly, two-day old neonatal C57BL/6 male mice were administered low-dose streptozotocin (STZ), and were subsequently fed a HFC diet from 4 weeks of age. In this model, the mice typically develop liver steatosis and diabetes, reaching steatohepatitis within 3 weeks, followed by cirrhosis within 8 weeks, and carcinoma within 16 weeks. In the current study, mice were administered daily oral gemcabene calcium salt hydrate Crystal Form 1 starting at week 6 of age and were sacrificed at week 9. […] These STAM™ groups were orally administered from week 6 one of the following: water-vehicle, gemcabene calcium salt hydrate Crystal Form 1 at 30, 100 and 300 mg/kg daily, or telmisartan ([…]®) 10 mg/kg daily. […] All groups were sacrificed at week 9. Vehicle, gemcabene calcium salt hydrate Crystal Form 1, or telmisartan were administered by oral gavage once daily.
For Hematoxylin and Eosin (H&E) staining, sections were cut from paraffin blocks of liver tissue prefixed in Bouin's solution and stained with Lillie-Mayer's Hematoxylin (Muto Pure Chemicals Co., Ltd., Japan) and eosin solution (Wako Pure Chemical Industries). NAFLD Activity score (NAS) was calculated according to the criteria of Kleiner, D E. Et al., Hepatology, 2005; 41:1313-1321. To visualize collagen deposition, Bouin's fixed liver sections were stained using picro-Sirius red solution (Waldeck, Germany). For Masson Trichrome staining, the sections were stained with Masson's Trichrome staining Kit (Sigma, USA) according to the manufacturer's instructions.
For quantitative analysis of fibrosis area, bright field images of Sirius red-stained sections were captured around the central vein using a digital camera (DFC295; Leica, Germany) at 200-fold magnification, and the positive areas in 5 fields/section were measured using ImageJ software (National Institute of Health, USA). Samples were analyzed in a blinded fashion.

[3] = patients with mixed dyslipidemia, 600 mg QD on statins (FIG. 48)
[4] = vs vehicle-treated STAM mice, telmisartan 10 mg/kg
[5] = vs vehicle-treated STAM mice, gemcabene Form 1 30 and 300 mg/kg, telmisartan 10 mg/kg

## CC(C)(CCCCOCCCCC(C)(C)C(=O)O)C(=O)O.[Ca] [6-(5-Carboxy-5-methyl-hexyloxy)-2,2-dimethylhexanoic acid calcium]
[1]; hypercholesterolemia patients on MI and HI statins, 600 mg QD, 12 weeks
  atherogenic and inflammatory markers: significant reductions
[1]; [3]
  reduction in ApoB: 26%
  reduction in ApoE: 34%
  reduction in LDL-C: 23%
  reduction in TG: 33%
  reduction in non-HDL-C: 19%
[2]; STAM mice
  micro- and macro-vesicular hepatic fat deposition, hepatocellular ballooning and inflammatory cell infiltration (H&E): diminished
[2]; [4]
  fibrosis area (Sirius red-positive area): significant decreases
[2]; vs vehicle-treated STAM mice, gemcabene Form 1 100 mg/kg (trending lower)
  NAFLD Activity Score (NAS): no significant difference
[2]; vs vehicle-treated STAM mice, gemcabene Form 1 300 mg/kg
  steatosis score and ballooning score: significant decrease
[2]; [5]
  NAFLD Activity Score (NAS): significant reduction
  lobular inflammation and ballooning scores: lower
  steatosis (H&E-stained liver sections): less steatosis

## CC(C)(CCCCOCCCCC(C)(C)C(=O)O)C(=O)O [gemcabene, 6-(5-carboxy-5-methyl-hexyloxy)-2,2-dimethyl-hexanoic acid]
[2]; 30 mg/kg PO QD, n = 8
  Lobular Inflammation score 1: number of mice: 2
  NAS (mean ± SD): 3.4 ± 1.1
  Lobular Inflammation score 0: number of mice: 1
  Hepatocyte Ballooning score 0: number of mice: 4
  Steatosis score 1: number of mice: 8
  Hepatocyte Ballooning score 1: number of mice: 2
  Lobular Inflammation score 2: number of mice: 4
  Hepatocyte Ballooning score 2: number of mice: 2
[2]; 30 mg/kg PO QD, n = 8, score 3 = >4 foci/200x
  Lobular Inflammation score 3: number of mice: 1
[2]; 30 mg/kg, STAM mice
  NAFLD Activity Score: 3.4
  Sirius red-positive area: 0.56%
[2]; 100 mg/kg PO QD, n = 8
  Lobular Inflammation score 1: number of mice: 1
  NAS (mean ± SD): 3.6 ± 1.4
  Lobular Inflammation score 0: number of mice: 2
  Hepatocyte Ballooning score 0: number of mice: 1
  Steatosis score 1: number of mice: 8
  Hepatocyte Ballooning score 1: number of mice: 4
  Lobular Inflammation score 2: number of mice: 5
  Hepatocyte Ballooning score 2: number of mice: 3
[2]; 100 mg/kg, STAM mice
  NAFLD Activity Score: 3.6
  Sirius red-positive area: 0.53%
[2]; 300 mg/kg PO QD, n = 8
  Lobular Inflammation score 1: number of mice: 2
  NAS (mean ± SD): 2.5 ± 0.8
  Steatosis score 0: number of mice: 3
  Lobular Inflammation score 0: number of mice: 2
  Hepatocyte Ballooning score 0: number of mice: 4
  Steatosis score 1: number of mice: 5
  Hepatocyte Ballooning score 1: number of mice: 3
  Lobular Inflammation score 2: number of mice: 4
  Hepatocyte Ballooning score 2: number of mice: 1
[2]; 300 mg/kg, STAM mice
  NAFLD Activity Score: 2.5
  Sirius red-positive area: 0.59%

## CCCc1nc2c(C)cc(-c3nc4ccccc4n3C)cc2n1Cc1ccc(-c2ccccc2C(=O)O)cc1 [telmisartan, reference compound]
[2]; 10 mg/kg PO QD, n = 7
  Lobular Inflammation score 1: number of mice: 4
  NAS (mean ± SD): 2.6 ± 1.0
  Steatosis score 0: number of mice: 1
  Lobular Inflammation score 0: number of mice: 2
  Hepatocyte Ballooning score 0: number of mice: 2
  Steatosis score 1: number of mice: 6
  Hepatocyte Ballooning score 1: number of mice: 4
  Lobular Inflammation score 2: number of mice: 1
  Hepatocyte Ballooning score 2: number of mice: 1
[2]; 10 mg/kg, STAM mice
  NAFLD Activity Score: 2.6
  Sirius red-positive area: 0.48%
[2]; [4]
  fibrosis area (Sirius red-positive area): significant decreases
[2]; [5]
  NAFLD Activity Score (NAS): significant reduction
  lobular inflammation and ballooning scores: lower
  steatosis (H&E-stained liver sections): less steatosis
